Patent EP1946778A1, “Active substance combination for the treatment of diabetes” (Laboratorios del Dr. Esteve S.A., priority 2007, dated 2008)

Experiments:
[1] = Carcass composition (water, fat, protein, ash), female DIO Wistar rats (COMPOUND C); type: in vivo; conditions: 30 mg/kg po once daily for 28 days
Method: (§1) The experiment was performed on female Wistar rats (originally in the weight range 250-300g). Animals were maintained on a reverse phase light-dark cycle (lights off for 8 h from 09.30-17.30 h) during which time the room was illuminated by red light. Animals had free access to powdered high fat diet (VRF1 plus 20% lard), ground chocolate, ground peanuts and tap water at all times. The three different diets were contained in separate glass feeding jars with aluminium lids with a 3-4 cm hole cut in it to allow access to the food. Animals were housed in pairs for twelve weeks for the induction of obesity. Animals were then housed singly in polypropylene cages with wire grid floors to enable the food intake of each rat to be recorded. Polypropylene trays with cage pads were placed beneath each cage to detect any food spillage. Animals were accustomed to these new conditions (individual housing and the wire-grid floor cages) for at least 14 days before the start of the baseline readings.
(§2) Approximately a week before the start of the study, animals were weighed (to the nearest 0.1 g using an electronic top-pan balance) and allocated into 2 weight-matched treatment groups, each containing 10 animals. Following a 7 day baseline run-in period, during which the animals were dosed by the appropriate route (eg orally) once a day with vehicle (1% methylcellulose; 1 ml/kg) or the test drug, ie COMPOUND C (30 mg/kg po) once daily for 28 days.
Total ether-extractable fat in the freeze-dried samples was estimated by the Soxhlet principle using a Foss Soxtec HT2 system. The protocol employed was based on the manufacturer's recommendations for meat samples, although freeze-dried samples obviated the necessity for either a fat hydrolysis step or mixing the sample with sand to ensure efficient extraction.
Samples of approximately 1 g were accurately weighed into 26 mm x 60 mm cellulose extraction thimbles which were then plugged with approximately 0.8 g cotton wool. Sample fat was extracted into pre-weighed (including a few boiling chips) standard metal extraction cups using 70 ml of petroleum ether at 40-60°C, a circulator temperature of 115°C and a cooling flow rate of 2 l/min. A boiling stage of 25 min was employed, followed by a 40 min wash stage. A 10 min drying stage sufficed to remove ether from the extraction cups.
Percentage fat in the freeze-dried sample was calculated as follows: % fat = [100 × (final cup weight-initial cup weight)]/sample weight [formula]
Percentage fat in the original sample was calculated using the % water as follows: % fat in original sample = % fat × [(100-%water)/100] [formula]
Total protein in the freeze-dried samples was estimated using the Kjeldahl principle. A micro-Kjeldahl procedure was performed using a Foss 2012 digestion block and a Foss 2200 distilling unit. The protocol used was based on the manufacturer's recommendations for meat samples.
Approximately 0.3 g of freeze-dried sample was accurately weighed into 100 ml digestion tubes (Foss UK Ltd) in racks of 12 tubes. Each rack included at least one blank tube to determine a reagent blank. To each tube was added two Kjeltabs CQ and one Antifoam S tablet followed by 10 ml of 98% sulphuric acid. Samples were digested at 420°C for 1 h to convert protein into ammonium sulphate. Once tubes had cooled, free ammonia was liberated by the addition of an excess of 40% NaOH and steam distilled into 30 ml of 4% boric acid indicator solution. Ammonia was then determined by titration against volumetric grade 0.1 M HCl using a Brand 25 ml digital burette. Nitrogen and protein content of the samples were calculated as follows: % nitrogen = [(sample titration-blank titration) × 0.1401]/sample weight(g)%protein = % nitrogen × 6.25 [formula]
Total ash in the freeze-dried samples was estimated by determining the non-combustible ash remaining after firing samples at high temperatures using a Carbolite OAF 11/1 muffle furnace. […]

[2] = Plasma leptin assay, female DIO Wistar rats (COMPOUND C); type: in vivo; conditions: 30 mg/kg po once daily for 28 days
Method: as §1, with “readings. […]” for “readings.”
Plasma leptin concentration was determined using Assay Designs rat leptin enzyme immunometric assay kits (Cat No. 900-015) according to the manufacturer's regular protocol. […] Optical density at 450 nm was determined using a Molecular Devices VERSAmax tunable microplate reader and readings transferred to GraphPad Prism. […]

[3] = Plasma glycerol and triacylglycerol assay, female DIO Wistar rats (COMPOUND C); type: in vivo; conditions: 30 mg/kg po once daily for 28 days
Method: as §1, with “readings. […]” for “readings.”
Plasma triacylglycerol was determined by modification of a discrete assay kit (Sigma Triglyceride determination kit, Cat No. TR0100) to a 96-well format. […]
A 2.5 mg/ml triolein equivalent glycerol standard was obtained from Sigma. […] Optical density readings were then transferred to GraphPad Prism and unknown values extrapolated from a linear regression fit to the standard curve. […]

[4] = Plasma glycerol and triacylglycerol assay, female DIO Wistar rats (COMPOUND A, COMPOUND B); type: in vivo; conditions: obese female Wistar rats; for reduction of plasma concentrations of triacylglycerol / reduction of plasma glycerol levels: 30 mg/kg po once daily for 28 days, vs vehicle
Method: as §1, with “250-300 g). The rats were housed in pairs in polypropylene cages with solid floors and sawdust bedding at a temperature of 21±4°C and 55±20% humidity.” for “250-300g).”, “aluminum” for “aluminium”
as §2, with “into 3” for “into 2”, “containing 9-10” for “containing 10”, “vehicle (0.5% hydroxy-propyl-methylcellulose [HPMC];” for “vehicle (1% methylcellulose;”, “COMPOUND A (10mg and 30 mg/kg po) and COMPOUND B (10 mg and 30” for “COMPOUND C (30”
Terminal blood samples via cardiac puncture were taken from the animals immediately after death into Sarstedt 4.5 ml lithium-heparin tubes (Cat No. 32.331). Tubes were then centrifuged at 1,500 g for 5 minutes at 4°C and the plasma removed and immediately frozen on dry ice (as 3 aliquots per sample in sealed Eppendorf tubes). Plasma samples were stored at -75°C until required for analysis. All determinations were performed on plasma samples that had been thawed only once.
Plasma triacylglycerol was determined by modification of a discrete assay kit (Sigma Triglyceride determination kit, Cat No. TR0100) to a 96-well format. The kit actually determines liberated glycerol following enzymic hydrolysis of triacylglycerol to free fatty acids and glycerol (1 mole glycerol per mole of triacylglycerol). For this reason, correction for the glycerol concentration originally present in the plasma is required. Plasma samples were, therefore, assayed in the absence (free plasma glycerol) or presence (total triacylglycerol) of lipoprotein lipase. Subtraction of free glycerol from total triacylglycerol concentration then derives the true triacylglycerol concentration.
A 2.5 mg/ml triolein equivalent glycerol standard was obtained from Sigma. The supplied Sigma mM conversion factor for this batch was 1.13 (ie 2.83 mM glycerol). A 10 mg/ml glycerol stock solution was prepared in saline and then diluted in saline to create a series of standard concentrations from 0.218 to 4.34 mM. Standards and plasma samples (undiluted) were pipetted into the 96-well plates as 10 µl additions in duplicate. Assay plates and reagents were preheated at 37°C and the reaction started by adding 200 µl of either the glycerol or total triacylglycerol reagent (reconstituted as per manufacturer's protocol) followed by incubation at 37°C for 5 minutes after which optical density at 540 nm was determined using a Molecular Devices VERSAmax tunable microplate reader. Optical density readings were then transferred to GraphPad Prism and unknown values extrapolated from a linear regression fit to the standard curve. The assay was linear up to the highest glycerol standard employed (4.34 mM). Subtraction of the glycerol concentration in the plasma samples from the total triacylglycerol concentration derived the true triacylglycerol concentration.

[5] = Plasma leptin assay, female DIO Wistar rats (COMPOUND A, COMPOUND B); type: in vivo; conditions: obese female Wistar rats
Method: as §1, with “250-300 g). The rats were housed in pairs in polypropylene cages with solid floors and sawdust bedding at a temperature of 21±4°C and 55±20% humidity.” for “250-300g).”, “aluminum” for “aluminium”, “Polypropylene trays with cage pads were placed beneath each cage to detect any food spillage.” left out, “readings. […]” for “readings.”
Plasma leptin concentration was determined using Assay Designs rat leptin enzyme immunometric assay kits (Cat No. 900-015) according to the manufacturer's regular protocol. […]
Optical density at 450 nm was determined using a Molecular Devices VERSAmax tunable microplate reader and readings transferred to GraphPad Prism. […]

[6] = Feeding study in female DIO Wistar rats (COMPOUND A, COMPOUND B): body weight and food intake; type: in vivo; conditions: dietary-induced obese female Wistar rats; 10 mg/kg po once daily; end of the 28 day drug treatment period
Method: as §1, with “250-300 g). The rats were housed in pairs in polypropylene cages with solid floors and sawdust bedding at a temperature of 21±4°C and 55±20% humidity.” for “250-300g).”, “aluminum” for “aluminium”
Approximately a week before the start of the study, animals were weighed (to the nearest 0.1 g using an electronic top-pan balance) and allocated into 3 weight-matched treatment groups, each containing 9-10 animals. […]
Food intake and body weight were measured once daily. […]

[7] = Plasma NEFA assay, female DIO Wistar rats (COMPOUND A, COMPOUND B); type: in vivo; conditions: obese female Wistar rats; 30 mg/kg po once daily for 28 days
Method: as §1, with “250-300 g). The rats were housed in pairs in polypropylene cages with solid floors and sawdust bedding at a temperature of 21±4°C and 55±20% humidity.” for “250-300g).”, “aluminum” for “aluminium”, “Animals were housed in pairs for twelve weeks for the induction of obesity.” left out, “Polypropylene trays with cage pads were placed beneath each cage to detect any food spillage.” left out, “readings. […]” for “readings.”
Non-esterified (or free) fatty acids (NEFA) were determined by modification of a commercial clinical analyser assay kit (Wako NEFA C ACS-ACOD method) to a 96-well format. […] After exactly 10 minutes, 150 µl of reagent B was added and the plate incubated for a further 10 minutes after which optical density at 540 nm was determined using a Molecular Devices VERSAmax tunable microplate reader. […]

[8] = olanzapine treatment of patients; literature; cited from earlier work
[9] = 10 mg/kg po once daily for 28 days

## O=C(NN1CCCCC1)C1=NN(c2ccc(Cl)cc2Cl)C(c2ccc(Cl)cc2)C1 (racemic) [COMPOUND C, (rac)-N-piperidinyl-5-(4-chlorophenyl)-1-(2,4-dichlorophenyl)-4,5-dihydro-1H-pyrazole-3-carboxamide]
[1]
  decrease in absolute body fat compared to the vehicle-treated control group: 57.7 g
  decrease in body fat as share of the total weight-loss observed: 79.3%
  decrease in fat mass compared to the vehicle-treated control group: 36.9%
  reduction of total carcass water compared to the vehicle-treated control: 11.8 g
[1]; vehicle 2.77%
  percentage ash content: 3.26%
[1]; vehicle 15.5%
  percentage protein content: 17.1%
[1]; vehicle 31.9%
  fat content as a percentage of carcass weight: 24.2%
[1]; vehicle 49.0%
  percentage water content of the carcasses: 54.3%
[1]; vehicle 156.3 g
  mean body fat mass: 98.6 g
[1]; vs vehicle (473.0 g)
  reduction of final carcass weight: 72.8 g
[2]
  plasma leptin concentrations, change compared to the vehicle-treated control group: -48.2%
[3]
  reduction of plasma glycerol levels compared to the vehicle-treated control group: 23.4%
  reduction of triacylglycerol levels compared to the vehicle-treated control group: 37.2%

## O=C(NN1CCCCC1)C1=NN(c2ccc(Cl)cc2Cl)[C@@H](c2ccc(Cl)cc2)C1 [COMPOUND A, (R)-N-piperidinyl-5-(4-chlorophenyl)-1-(2,4-dichlorophenyl)-4,5-dihydro-1H-pyrazole-3-carboxamide]
[4]; [9]
  plasma glycerol levels, effect vs vehicle: no significant effect
  plasma triacylglycerol concentrations, effect vs vehicle: no significant effect
[4]
  reduction of plasma concentrations of triacylglycerol: 42.0%
  reduction of plasma glycerol levels: 33.6%

## O=C(NN1CCCCC1)C1=NN(c2ccc(Cl)cc2Cl)[C@H](c2ccc(Cl)cc2)C1 [COMPOUND B, (S)-N-piperidinyl-5-(4-chlorophenyl)-1-(2,4-dichlorophenyl)-4,5-dihydro-1H-pyrazole-3-carboxamide]
[5]; [9]
  decrease of plasma leptin levels compared to the vehicle-treated control group: 13.7%
[5]; 30 mg/kg po once daily for 28 days
  decrease of plasma leptin levels compared to the vehicle-treated control group: 26.2%
[6]
  body weights lower than those of the vehicle-treated controls: 4.0%
[4]
  reduction of plasma concentrations of triacylglycerol: 52.1%
  reduction of plasma glycerol levels: 38.9%
[7]
  decrease of plasma NEFA levels compared to the vehicle-treated control group: 24.4%

## Cc1cc2c(s1)Nc1ccccc1N=C2N1CCN(C)CC1 [olanzapine]
[8]
  mean increase in body weight: ~ 5 kg
